The values that follow come from patent US20120202847A1, “Novel Tetrahydroisoquinoline Compounds” (priority 2009, published 2012).

The target of this test is T1, DGAT1 enzyme (Homo sapiens, UniProt O75907).
T1 construct: made in house
T1 sequence (O75907 1-488): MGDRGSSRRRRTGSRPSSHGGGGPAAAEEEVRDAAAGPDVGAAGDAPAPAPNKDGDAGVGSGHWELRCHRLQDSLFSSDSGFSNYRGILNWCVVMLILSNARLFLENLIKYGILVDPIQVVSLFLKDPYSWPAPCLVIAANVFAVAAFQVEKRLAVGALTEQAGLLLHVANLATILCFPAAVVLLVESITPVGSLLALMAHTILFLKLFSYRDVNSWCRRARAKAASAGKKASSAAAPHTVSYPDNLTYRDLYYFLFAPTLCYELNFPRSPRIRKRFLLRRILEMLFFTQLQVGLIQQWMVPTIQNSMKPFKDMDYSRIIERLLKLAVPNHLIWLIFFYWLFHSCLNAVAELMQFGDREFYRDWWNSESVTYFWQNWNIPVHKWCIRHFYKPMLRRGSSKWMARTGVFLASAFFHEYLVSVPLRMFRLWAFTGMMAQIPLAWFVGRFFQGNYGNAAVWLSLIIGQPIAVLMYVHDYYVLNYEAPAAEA
The test can be described thus: DGAT1 inhibitory activity test. The format is biochemical. The following applies: test compound concentration of 0.05 μg/ml; [14C]-oleoyl-CoA, 23° C., 30 minutes; read-out: Inhibitory Rate. As for the experimental part: (1) Preparation of DGAT1 Enzyme
DGAT1 enzyme was prepared and stored according to the method described in US2007/0249620.
(2) DGAT1 Inhibitory Activity Test
A reaction solution having the following composition was incubated at room temperature (23° C.) for 30 minutes: 175 mM Tris-HCl (pH 8.0), 8 mM MgCl2, 1 mg/ml BSA, 0.3 mM 1,2-dioleoyl-sn-glycerol (10-fold concentration of EtOH solution, 10% added), 10 μM [^14C]-oleoyl-CoA (approximately 50 mCi/mmol), 0.5% Triton X-100, the DGAT1 enzyme (10 μg) obtained in Test Example 1(1), and a test compound or vehicle (DMSO/MeOH, 7:3 solution, 5% added), 50 μl in total. A reaction stop solution […] consisting of isopropanol/1-heptane/water (80:20:2, v/v/v) was added to the reaction solution and stirred. Subsequently, water […] and 1-heptane (100 μl) were added thereto and stirred. The 1-heptane layer […] was spotted onto a TLC plate and developed with a developing solvent consisting of 1-hexane/diethyl ether/acetic acid (85:15:1, v/v/v). The radioactivity of the triglyceride fraction was quantified using BAS2500 Bio Image Analyzer (FUJIFILM) and compared with the control. The inhibitory activity of the test compound was calculated according to the formula shown below. In this context, the radioactivity at no reaction (0 minute incubation) was used as background.
Inhibitory Rate=100−[(Radioactivity of sample supplemented with test compound)−(Background)]/[(Radioactivity of control)−(Background)]×100

For `O=C(O)C[C@H]1CC[C@H](OC(=O)N2CCc3cc(NC(=O)Nc4ccc(F)cc4F)ccc3C2)CC1` [Example 1, trans-6-[3-(2,4-difluoro-phenyl)-ureido]-3,4-dihydro-1H-isoquinoline-2-carboxylic acid 4-carboxymethyl-cyclohexyl ester], the inhibition at 0.05 µg/mL is at least 50%.

In the case of `O=C(O)C[C@H]1CC[C@H](OC(=O)N2CCc3cc(NC(=O)Nc4cccc(F)c4F)ccc3C2)CC1` [Example 3, trans-6-[3-(2,3-difluoro-phenyl)-ureido]-3,4-dihydro-1H-isoquinoline-2-carboxylic acid 4-carboxymethyl-cyclohexyl ester], the inhibition at 0.05 µg/mL was at least 50%.

In the case of `O=C(O)C[C@H]1CC[C@H](OC(=O)N2CCc3cc(NC(=O)Nc4cc(F)ccc4F)ccc3C2)CC1` [Example 4, trans-6-[3-(2,5-difluoro-phenyl)-ureido]-3,4-dihydro-1H-isoquinoline-2-carboxylic acid 4-carboxymethyl-cyclohexyl ester], the inhibition at 0.05 µg/mL was at least 50%.

In the case of `O=C(O)C[C@H]1CC[C@H](OC(=O)N2CCc3cc(NC(=O)Nc4c(F)cccc4F)ccc3C2)CC1` [Example 5, trans-6-[3-(2,6-difluoro-phenyl)-ureido]-3,4-dihydro-1H-isoquinoline-2-carboxylic acid 4-carboxymethyl-cyclohexyl ester], the inhibition at 0.05 µg/mL is at least 50%.

For the compound `Cc1cccc(NC(=O)Nc2ccc3c(c2)CCN(C(=O)O[C@H]2CC[C@H](CC(=O)O)CC2)C3)c1F` [Example 6, trans-6-[3-(2-fluoro-3-methyl-phenyl)-ureido]-3,4-dihydro-1H-isoquinoline-2-carboxylic acid 4-carboxymethyl-cyclohexyl ester], the inhibition at 0.05 µg/mL is at least 50%.

Turning to `Cc1ccc(F)c(NC(=O)Nc2ccc3c(c2)CCN(C(=O)O[C@H]2CC[C@H](CC(=O)O)CC2)C3)c1` [Example 7, trans-6-[3-(2-fluoro-5-methyl-phenyl)-ureido]-3,4-dihydro-1H-isoquinoline-2-carboxylic acid 4-carboxymethyl-cyclohexyl ester], the inhibition at 0.05 µg/mL is at least 50%.

As to `Cc1ccc(NC(=O)Nc2ccc3c(c2)CCN(C(=O)O[C@H]2CC[C@H](CC(=O)O)CC2)C3)c(F)c1` [Example 8, trans-6-[3-(2-fluoro-4-methyl-phenyl)-ureido]-3,4-dihydro-1H-isoquinoline-2-carboxylic acid 4-carboxymethyl-cyclohexyl ester], the inhibition at 0.05 µg/mL is at least 50%.

With `Cc1cccc(F)c1NC(=O)Nc1ccc2c(c1)CCN(C(=O)O[C@H]1CC[C@H](CC(=O)O)CC1)C2` [Example 9, trans-6-[3-(2-fluoro-6-methyl-phenyl)-ureido]-3,4-dihydro-1H-isoquinoline-2-carboxylic acid 4-carboxymethyl-cyclohexyl ester], the inhibition at 0.05 µg/mL is at least 50%.

For the compound `O=C(O)C[C@H]1CC[C@H](OC(=O)N2CCc3cc(NC(=O)Nc4cccc(Cl)c4F)ccc3C2)CC1` [Example 10, trans-6-[3-(3-chloro-2-fluoro-phenyl)-ureido]-3,4-dihydro-1H-isoquinoline-2-carboxylic acid 4-carboxymethyl-cyclohexyl ester], the inhibition at 0.05 µg/mL is at least 50%.

Turning to `O=C(O)C[C@H]1CC[C@H](OC(=O)N2CCc3cc(NC(=O)Nc4ccc(Cl)cc4F)ccc3C2)CC1` [Example 11, trans-6-[3-(4-chloro-2-fluoro-phenyl)-ureido]-3,4-dihydro-1H-isoquinoline-2-carboxylic acid 4-carboxymethyl-cyclohexyl ester], the inhibition at 0.05 µg/mL was at least 50%.

As for `O=C(O)C[C@H]1CC[C@H](OC(=O)N2CCc3cc(NC(=O)Nc4cc(Cl)ccc4F)ccc3C2)CC1` [Example 12, trans-6-[3-(5-chloro-2-fluoro-phenyl)-ureido]-3,4-dihydro-1H-isoquinoline-2-carboxylic acid 4-carboxymethyl-cyclohexyl ester], the inhibition at 0.05 µg/mL was at least 50%.

Regarding `O=C(O)C[C@H]1CC[C@H](OC(=O)N2CCc3cc(NC(=O)Nc4c(F)cccc4Cl)ccc3C2)CC1` [Example 13, trans-6-[3-(2-chloro-6-fluoro-phenyl)-ureido]-3,4-dihydro-1H-isoquinoline-2-carboxylic acid 4-carboxymethyl-cyclohexyl ester], the inhibition at 0.05 µg/mL was at least 50%.

On to `O=C(O)C[C@H]1CC[C@H](OC(=O)N2CCc3cc(NC(=O)Nc4ccc(F)c(F)c4F)ccc3C2)CC1` [Example 14, trans-6-[3-(2,3,4-trifluoro-phenyl)-ureido]-3,4-dihydro-1H-isoquinoline-2-carboxylic acid 4-carboxymethyl-cyclohexyl ester], for which the inhibition at 0.05 µg/mL is at least 50%.

On to `O=C(O)C[C@H]1CC[C@H](OC(=O)N2CCc3cc(NC(=O)Nc4c(F)cc(F)cc4F)ccc3C2)CC1` [Example 15, trans-6-[3-(2,4,6-trifluoro-phenyl)-ureido]-3,4-dihydro-1H-isoquinoline-2-carboxylic acid 4-carboxymethyl-cyclohexyl ester], for which the inhibition at 0.05 µg/mL is at least 50%.

Take `O=C(O)C[C@H]1CC[C@H](OC(=O)N2CCc3cc(NC(=O)Nc4ccc(C(F)(F)F)cc4F)ccc3C2)CC1` [Example 16, trans-6-[3-(2-fluoro-4-trifluoromethyl-phenyl)-ureido]-3,4-dihydro-1H-isoquinoline-2-carboxylic acid 4-carboxymethyl-cyclohexyl ester]: the inhibition at 0.05 µg/mL is at least 50%.

Turning to `O=C(O)C[C@H]1CC[C@H](OC(=O)N2CCc3cc(NC(=O)Nc4ccccc4C(F)(F)F)ccc3C2)CC1` [Example 17, trans-6-[3-(2-trifluoromethyl-phenyl)-ureido]-3,4-dihydro-1H-isoquinoline-2-carboxylic acid 4-carboxymethyl-cyclohexyl ester], the inhibition at 0.05 µg/mL is at least 50%.

For the compound `O=C(O)C[C@H]1CC[C@H](OC(=O)N2CCc3cc(NC(=O)Nc4ccc(F)cc4C(F)(F)F)ccc3C2)CC1` [Example 18, trans-6-[3-(4-fluoro-2-trifluoromethyl-phenyl)-ureido]-3,4-dihydro-1H-isoquinoline-2-carboxylic acid 4-carboxymethyl-cyclohexyl ester], the inhibition at 0.05 µg/mL was at least 50%.

As to `COc1ccc(NC(=O)Nc2ccc3c(c2)CCN(C(=O)O[C@H]2CC[C@H](CC(=O)O)CC2)C3)c(C)c1` [Example 19, trans-6-[3-(4-methoxy-2-methyl-phenyl)-ureido]-3,4-dihydro-1H-isoquinoline-2-carboxylic acid 4-carboxymethyl-cyclohexyl ester], the inhibition at 0.05 µg/mL was at least 50%.

Turning to `Cc1ccc(NC(=O)Nc2ccc3c(c2)CCN(C(=O)O[C@H]2CC[C@H](CC(=O)O)CC2)C3)c(Cl)c1` [Example 20, trans-6-[3-(2-chloro-4-methyl-phenyl)-ureido]-3,4-dihydro-1H-isoquinoline-2-carboxylic acid 4-carboxymethyl-cyclohexyl ester], the inhibition at 0.05 µg/mL was at least 50%.

`O=C(O)C[C@H]1CC[C@H](OC(=O)N2CCc3cc(NC(=O)Nc4cccc(C(F)(F)F)c4F)ccc3C2)CC1` [Example 21, trans-6-[3-(2-fluoro-3-trifluoromethyl-phenyl)-ureido]-3,4-dihydro-1H-isoquinoline-2-carboxylic acid 4-carboxymethyl-cyclohexyl ester]: the inhibition at 0.05 µg/mL is at least 50%.

Regarding `O=C(O)C[C@H]1CC[C@H](OC(=O)N2CCc3cc(NC(=O)Nc4cc(C(F)(F)F)ccc4F)ccc3C2)CC1` [Example 22, trans-6-[3-(2-fluoro-5-trifluoromethyl-phenyl)-ureido]-3,4-dihydro-1H-isoquinoline-2-carboxylic acid 4-carboxymethyl-cyclohexyl ester], the inhibition at 0.05 µg/mL is at least 50%.

As for `Cc1ccc(NC(=O)Nc2ccc3c(c2)CCN(C(=O)O[C@H]2CC[C@H](CC(=O)O)CC2)C3)c(C)c1` [Example 23, trans-6-[3-(2,4-dimethyl-phenyl)-ureido]-3,4-dihydro-1H-isoquinoline-2-carboxylic acid 4-carboxymethyl-cyclohexyl ester], the inhibition at 0.05 µg/mL was at least 50%.

`O=C(O)C[C@H]1CC[C@H](OC(=O)N2CCc3cc(NC(=O)Nc4ccc(Cl)cc4Cl)ccc3C2)CC1` [Example 24, trans-6-[3-(2,4-dichloro-phenyl)-ureido]-3,4-dihydro-1H-isoquinoline-2-carboxylic acid 4-carboxymethyl-cyclohexyl ester]: the inhibition at 0.05 µg/mL was at least 50%.
